The record followed here is US11970494B2, “6-heteroaryloxy benzimidazoles and azabenzimidazoles as JAK2 inhibitors” (Ajax Therapeutics, Inc., priority 2021, dated 2024).

Each structure is given as a SMILES string.

A short description of series [1]: Hepatocyte Stability Assay, human hepatocytes. In kind it is in vitro ADME. The following applies: cryopreserved hepatocytes, read-out: Human Heps CLint. As for the experimental part: (§1) 10 mM stock solutions of test compound and positive control are prepared in DMSO. Stock solutions are diluted to 100 μM by combining 198 μL of 50% acetonitrile/50% water and 2 μL of 10 mM stock solution. Verapamil is used as positive control in the assay. Vials of cryopreserved hepatocytes are thawed in a 37° C. water bath with gently shaking. The contents are poured into the 50 mL thawing medium conical tube. Vials are centrifuged at 100 g for 10 minutes at room temperature. Thawing medium is aspirated and hepatocytes are re-suspended with serum-free incubation medium to yield ˜1.5×10^6 cells/mL. Cell viability and density are counted using a Trypan Blue exclusion, and then cells are diluted with serum-free incubation medium to a working cell density of 0.5×10^6 viable cells/mL. A portion of the hepatocytes at 0.5×10^6 viable cells/mL are boiled for 5 min prior to adding to the plate as negative control to eliminate the enzymatic activity so that little or no substrate turnover should be observed. Aliquots of 198 μL hepatocytes are dispensed into each well of a 96-well non-coated plate. The plate is placed in the incubator for approximately 10 minutes. Aliquots of 2 μL of the 100 μM test compound and 2 μL positive control are added into respective wells of a non-coated 96-well plate to start the reaction. The final concentration of test compound is 1 μM. This assay is performed in duplicate. The plate is incubated in the incubator for the designed time points. 25 μL of contents are transferred and mixed with 6 volumes (150 μL) of cold acetonitrile with internal standard (100 nM alprazolam, 200 nM labetalol, 200 nM caffeine and 200 nM diclofenac) to terminate the reaction at time points of 0, 15, 30, 60, 90 and 120 minutes. Samples are centrifuged for 25 minutes at 3,220 g and aliquots of 150 μL of the supernatants are used for LC-MS/MS analysis.

A short description of series [2]: Hepatocyte Stability Assay, rat hepatocytes. In kind it is in vitro ADME. The following applies: cryopreserved hepatocytes, read-out: Rat Heps CLint. As for the experimental part:
as §1

For series [3], the system named is JAK2-mediated pSTAT5 signaling in constitutively active essential thrombocytopenia cells carrying the V617F mutation. Kind of series: SET2-pSTAT5 Cellular Assay. The series is classed as cell-based. The following applies: Homo sapiens, SET-2; SET2 cells, pSTAT5, 4 hours, MSD; read-out: IC50. As for the experimental part:
This assay measures inhibition of JAK2-mediated pSTAT5 signaling in constitutively active essential thrombocytopenia cells carrying the V617F mutation. Cells are harvested from a flask into cell culture medium, and the number of cells is counted. The cells are diluted with culture medium and 100 μL of cell suspension (50000/well) is added into each well of a 96-well cell culture plate. A solution of test compound is added to the assay plate. The plates are covered with a lid and placed in a 37° C. 5% CO2 incubator for 4 hours. After 4 hours, the cells are spun, and the cell pellets are re-suspended with 100 μL cold PBS. Then, the cells are spun again at 4° C. and 4000 rpm for 5 min. PBS is aspirated, and 25 μL lysis buffer (with protease and phosphatase inhibitor cocktail) is added to each cell pellet. The cell lysate is shaken at 4° C. for 20 min to fully lyse the cells. The cell lysate is spun at 4° C. and 4000 rpm for 15 min, and then the supernatant is transferred into a new plate and stored at −80° C. Meso-scale discovery (MSD) is used to analyze plates as follows: a standard MSD plate is coated with capture antibody in PBS (40 μL/well) and is incubated at 4° C. overnight with shaking. The MSD plate is washed three times with 150 μL/well of 1×MSD Wash Buffer (Tris-buffered saline with 0.1% Tween® 20 detergent, TBST). The MSD plates are then blocked with 150 μL of blocking buffer (5% BSA in TBST) and shaken for 1 h at room temperature and 600 rpm. The MSD plate is washed three times with 150 μL/well of 1×MSD Wash Buffer (TBST). Sample lysates are then added to MSD plates (25 μL/well) and shaken for 1 h at room temperature and 600 rpm. The MSD plate is washed three times with 150 μL/well of 1×MSD Wash Buffer (TBST). Detection antibody (prepared in Antibody Detection buffer, 1% BSA in 1×TBST) is then added to the MSD plates, and they are shaken for 1 h at room temperature and 600 rpm. The MSD plate is washed three times with 150 μL/well of 1×MSD Wash Buffer (TBST). A secondary detection antibody (prepared in Antibody Detection buffer, 1% BSA in 1×TBST) is then added to the MSD plates, and they are shaken for 1 h at room temperature and 600 rpm. The MSD plate is washed three times with 150 μL/well of 1×MSD Wash Buffer (TBST). MSD reading buffer (1×) is added to the plates (150 μL/well), and they are diluted from 4× with water. The plates are imaged using an MSD imaging instrument according to the manufacturer's instructions.

With `COCC(=O)Nc1cc(Oc2cnc3nc(Nc4cc(C(F)(F)F)cn(C)c4=O)n(C)c3c2Cl)ccn1` [Example I-75, N-(4-((7-chloro-1-methyl-2-((1-methyl-2-oxo-5-(trifluoromethyl)-1,2-dihydropyridin-3-yl)amino)-1H-imidazo[4,5-b]pyridin-6-yl)oxy)pyridin-2-yl)-2-methoxyacetamide], the CLint scaled at 1 μM was 12 to 20 mL/min/kg in series [1] and less than 17 mL/min/kg in series [2]. Moreover, in series [3], the IC50 (in general, the concentration needed to halve the response being measured) was less than 125 nM.
In the same order, the values of `COCC(=O)Nc1cc(Oc2cnc3nc(Nc4cc(C(F)(F)F)cn(C)c4=O)n(C)c3c2C#N)ccn1` [Example I-79, N-(4-((7-cyano-1-methyl-2-((1-methyl-2-oxo-5-(trifluoromethyl)-1,2-dihydropyridin-3-yl)amino)-1H-imidazo[4,5-b]pyridin-6-yl)oxy)pyridin-2-yl)-2-methoxyacetamide] are 12 to 20 mL/min/kg, 17 to 35 mL/min/kg and less than 125 nM.
In the same order, the values of `CC(=O)Nc1cc(Oc2cnc3nc(Nc4cc(C(F)(F)F)cn(C)c4=O)n(C)c3c2Cl)c(F)cn1` [Example I-88, N-(4-((7-chloro-1-methyl-2-((1-methyl-2-oxo-5-(trifluoromethyl)-1,2-dihydropyridin-3-yl)amino)-1H-imidazo[4,5-b]pyridin-6-yl)oxy)-5-fluoropyridin-2-yl)acetamide] are 12 to 20 mL/min/kg, 17 to 35 mL/min/kg and less than 125 nM.
In the same order, the values of `CC(=O)Nc1cc(Oc2cnc3nc(Nc4cc5n(n4)CCCC54CC4)n(C)c3c2C#N)ccn1` [Example I-114, N-(4-((7-cyano-2-((6′,7′-dihydro-5′H-spiro[cyclopropane-1,4′-pyrazolo[1,5-a]pyridin]-2′-yl)amino)-1-methyl-1H-imidazo[4,5-b]pyridin-6-yl)oxy)pyridin-2-yl)acetamide] are 6 to 12 mL/min/kg, 35 to 45 mL/min/kg and 200 to 1000 nM.
In the case of `CC(=O)Nc1cc(Oc2cnc3nc(Nc4cc5n(n4)CCOCC5(C)C)n(C)c3c2C#N)ccn1` [Example I-118, N-(4-((7-cyano-2-((4,4-dimethyl-4,5,7,8-tetrahydropyrazolo[1,5-d][1,4]oxazepin-2-yl)amino)-1-methyl-1H-imidazo[4,5-b]pyridin-6-yl)oxy)pyridin-2-yl)acetamide], the CLint scaled at 1 μM in series [1] is no more than 6 mL/min/kg; in series [2], less than 17 mL/min/kg. For the same molecule, the IC50 in series [3] was 200 to 1000 nM.
For the molecule `Cn1c(Nc2cc3n(n2)CCC32CCC2)nc2ncc(Oc3ccnc(NC(=O)C4CC4)c3)c(C#N)c21` [Example I-122, N-(4-((7-cyano-2-((5′,6′-dihydrospiro[cyclobutane-1,4′-pyrrolo[1,2-b]pyrazol]-2′-yl)amino)-1-methyl-1H-imidazo[4,5-b]pyridin-6-yl)oxy)pyridin-2-yl)cyclopropanecarboxamide], the CLint scaled at 1 μM is 12 to 20 mL/min/kg in series [1] and less than 17 mL/min/kg in series [2]. Besides, the IC50 in series [3] is less than 125 nM.
Consider `CCN1CCN(Cc2ccc(Nc3nc4ccc(Oc5ccnc(NC(C)=O)c5)cc4n3C)cc2C(F)(F)F)CC1` [Example R-1, reference compound], for which the CLint scaled at 1 μM in series [1] was in the range of 12 to 20 mL/min/kg; in series [2], 35 to 45 mL/min/kg. Moreover, the IC50 in series [3] lay within 200 to 1000 nM.
